This experiment relates to HT29 cells. Put plainly: LPS-induced IL-8 production by HT29 intestinal epithelial cells (ELISA). As to conditions: compounds 50 mg/L to 5 μg/L for 18 h, then LPS (Salmonella enterica abortus equi) 1 μg/ml 6 h. In kind it is cell-based, human. As to the method:
FIG. 2A. LPS-induced IL-8 production by HT29 cells in the absence or presence of the indicated concentrations of compound (c) 4, 5, 6, 7, 4′, 14.
The effect of the compounds on the release of IL-8 or KC was tested upon stimulation of intestinal epithelial cells (IEC) with LPS from Salmonella enterica abortus equi. The human IEC line HT29 was used for these experiments. Cells were cultured for 18 h in medium alone or in medium additioned with different concentrations of compounds 4, 5, 6, 7, 4′ and 14 (from 50 mg/L to 5 μg/L). Then, cells were stimulated for 6 h with LPS (1 μg/ml). […] Similar experiments were performed on a human pneumocyte type II cell line (A549) using compound 4 and LPS from Pseudomonas aeruginosa.
With `CN(C)c1cccc2c(S(=O)(=O)NCC[C@H]3O[C@H](CO)[C@H](O)[C@H](O)[C@H]3O)cccc12` [4′, 5-(Dimethylamino)-N-[2′-(α-D-galactopyranosyl)ethyl]-1-naphthalenesulfonamide], the “production of IL-8 induced by LPS” value is on record as “significantly inhibited”. The same measure for `CN(C)c1cccc2c(S(=O)(=O)NCCCC[C@H]3O[C@H](CO)[C@@H](O)[C@H](O)[C@H]3O)cccc12` [Compound 14, 5-(Dimethylamino)-N-[4′-(α-D-glucopyranosyl)butyl]-1-naphthalenesulfonamide]: “significantly inhibited”; for `CCCCN(CCCC)c1cccc2c(S(=O)(=O)NCC[C@H]3O[C@H](CO)[C@@H](O)[C@H](O)[C@H]3O)cccc12` [Compound 7, 5-(Dibutylamino)-N-[2′-(α-D-glucopyranosyl)ethyl]-1-naphthalenesulfonamide]: “significantly inhibited”; for `O=C(NCC[C@H]1O[C@H](CO)[C@@H](O)[C@H](O)[C@H]1O)c1cccc2ccccc12` [Compound 6, N-[2′-(α-D-Glucopyranosyl)ethyl]-1-naphtalenecarboxyamide]: “significantly inhibited”. For `O=S(=O)(NCC[C@H]1O[C@H](CO)[C@@H](O)[C@H](O)[C@H]1O)c1cccc2ccccc12` [Compound 5], the “production of IL-8 induced by LPS” value is “significantly inhibited”.

The values above are taken from patent publication US20110112184A1, “COMPOUNDS WITH GLYCIDIC STRUCTURE ACTIVE IN THE THERAPY OF SYSTEMIC AND LOCAL INFLAMMATION” (priority 2008, published 2011).
